The term IC50 denotes the concentration that gives 50% inhibition.

Sequence of Full length SHP2 protein (Recombinant Human SHP-2) (Q06124 2-593): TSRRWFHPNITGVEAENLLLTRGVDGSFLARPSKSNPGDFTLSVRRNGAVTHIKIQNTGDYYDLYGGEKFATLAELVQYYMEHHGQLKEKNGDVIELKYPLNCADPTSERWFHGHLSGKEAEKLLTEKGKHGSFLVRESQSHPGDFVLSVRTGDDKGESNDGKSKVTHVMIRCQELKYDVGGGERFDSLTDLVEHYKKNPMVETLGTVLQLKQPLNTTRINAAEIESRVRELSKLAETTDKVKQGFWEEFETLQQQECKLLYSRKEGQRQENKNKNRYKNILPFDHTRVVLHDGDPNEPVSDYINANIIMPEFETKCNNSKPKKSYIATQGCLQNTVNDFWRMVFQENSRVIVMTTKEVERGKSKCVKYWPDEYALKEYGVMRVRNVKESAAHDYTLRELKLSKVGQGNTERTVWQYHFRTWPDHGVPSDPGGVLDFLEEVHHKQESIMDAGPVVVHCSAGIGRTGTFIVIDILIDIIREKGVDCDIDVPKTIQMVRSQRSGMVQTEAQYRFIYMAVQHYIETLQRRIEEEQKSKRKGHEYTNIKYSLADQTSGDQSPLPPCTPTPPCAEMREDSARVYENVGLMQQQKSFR

One experiment addresses Full length SHP2 protein (Recombinant Human SHP-2) (Homo sapiens (Human), UniProt Q06124). Kind of experiment: SHP2 biochemical assay (DiFMUP substrate, activating peptide IRSI_2pY). The conditions noted are these: SHP-2 biochemical assay IC50 (μM), activating peptide IRSI_2pY 140 nM, DiFMUP, 60 min.
Experimental: The inhibition of SHP2 by compounds of the invention was monitored using the surrogate substrate DiFMUP after protein activation by a peptide bearing two appropriately spaced phosphotyrosine. […] The generation of the DiFMU product by activated SHP2 was monitored through Fluorescence measurement with a PerkinElmer Envision reader. The inhibitor dose response curves were analyzed with Genedata Screener.
Regarding `[2H]C([2H])([2H])c1c(N2CCC(C)(N)CC2)nc(C)n(-c2cccc(Cl)c2Cl)c1=O` [Compound 94, 6-(4-amino-4-methylpiperidin-1-yl)-3-(2,3-dichlorophenyl)-5-(D3)methyl-2-methyl-3,4-dihydropyrimidin-4-one], the IC50 turned out to be 1.4 µM.

Take `Cc1c(N2CCC3(CC2)Cc2ccccc2[C@@H]3N)nc(C)n(-c2cccc(Cl)c2Cl)c1=O` (atropisomer, axis not shown) [Compound 74d, (3P)-6-[(1R)-1-amino-1,3-dihydrospiro[indene-2,4′-piperidin]-1′-yl]-3-(2,3-dichlorophenyl)-2,5-dimethyl-3,4-dihydropyrimidin-4-one]: the IC50 was above 10 µM. Turning to `Cc1nc(N2CC[C@@H](N)[C@@H](O)C2)cc(=O)n1-c1cccc(Cl)c1Cl` (racemic) [Compound 30, (+/−)-6-[(3S,4R)-4-amino-3-hydroxypiperidin-1-yl]-3-(2,3-dichlorophenyl)-2-methyl-3,4-dihydropyrimidin-4-one], the IC50 was found to be 13 µM. As to `Cc1c(N2C[C@H]3COC[C@@]3(CN)C2)nc(C)n(-c2cccc(Cl)c2Cl)c1=O` (racemic) [Compound 34, (+/−)-6-[(3aS,6aS)-3a-(aminomethyl)-hexahydro-1H-furo[3,4-c]pyrrol-5-yl]-3-(2,3-dichlorophenyl)-2,5-dimethyl-3,4-dihydropyrimidin-4-one], the IC50 was found to be 1.7 µM. With `Cc1nc(N(C)[C@H]2CC[C@](C)(N)CC2)cc(=O)n1-c1cccc(Cl)c1Cl` (single isomer, unassigned) [Compound 71a, 3-(2,3-dichlorophenyl)-2-methyl-6-{methyl[(trans)-4-amino-4-methylcyclohexyl]amino}-3,4-dihydropyrimidin-4-one], the IC50 was above 50 µM.

The experiment is the same for the next values; noted with them: activating peptide IRSI_2pY 140 nM, DiFMUP, 60 min; read-out: SHP-2 biochemical assay IC50.
For `Cc1c(N2CCC3(CC2)Oc2cnccc2[C@@H]3N)nc(C)n(-c2cccc(Cl)c2Cl)c1=O` (single isomer, unassigned) [Compound 80d], the IC50 came to 1.4 µM. Same read-out and setting: the result for `Cc1c(N2CCC(C)(N)CC2)nc(C)n(-c2ccc3ccccc3c2)c1=O` [Compound 39, 6-(4-Amino-4-methyl-piperidin-1-yl)-2,5-dimethyl-3-naphthalen-2-yl-3H-pyrimidin-4-one] reads above 10 µM; that for `Cc1nc(N2CC3CCCC3(CN)C2)cc(=O)n1-c1cccc(Cl)c1Cl` (stereo not shown) [Compound 14, 6-[3a-(aminomethyl)-octahydrocyclopenta[c]pyrrol-2-yl]-3-(2,3-dichlorophenyl)-2-methyl-3,4-dihydropyrimidin-4-one], 6.6 µM; that for `Cc1c(N2CCC3(CCC[C@H]3N)CC2)nc(N)n(-c2cccc(Cl)c2Cl)c1=O` (single isomer, unassigned) [Compound 78b], above 10 µM. For the compound `Cc1c(N2CCC3(CC2)CO[C@@H](C)[C@H]3N)nc(C)n(-c2ccc3ccccc3c2Cl)c1=O` [Compound 52, 6-((3S,4S)-4-Amino-3-methyl-2-oxa-8-aza-spiro[4.5]dec-8-yl)-3-(1-chloro-naphthalen-2-yl)-2,5-dimethyl-3H-pyrimidin-4-one], the IC50 is 0.59 µM.

Turning to `Cc1nc(N2CCC(C)(N)CC2)c(C2CC2)c(=O)n1-c1cccc(Cl)c1Cl` [Compound 93, 6-(4-Amino-4-methyl-piperidin-1-yl)-5-cyclopropyl-3-(2,3-dichloro-phenyl)-2-methyl-3H-pyrimidin-4-one], the IC50 is 12 µM.

Regarding `Cc1nc(N2CCC(C)(CN)CC2)cc(=O)n1-c1c(F)ccc(Cl)c1Cl` (single isomer, unassigned) [Compound 33a, (3P)-6-[4-(aminomethyl)-4-methylpiperidin-1-yl]-3-(2,3-dichloro-6-fluorophenyl)-2-methyl-3,4-dihydropyrimidin-4-one], the IC50 was above 10 µM. In the case of `Cc1nc(N2CCC3(CCC[C@H]3N)CC2)cc(=O)n1-c1cccc(Cl)c1Cl` (single isomer, unassigned) [Compound 62a], the IC50 was above 10 µM.

Values taken from US11001561B2, “Pyrimidinone derivatives as SHP2 antagonists” (MERCK PATENT GMBH, priority 2019, dated 2021).
